Consider eight molecules from patent publication US12098129B2, “Pharmaceutical composition for treating fibrosis” (LTT BIO-PHARMA CO., LTD., priority 2018, dated 2024).

Entries after “also recorded” stand apart in the source; their conditions may differ.

For assay [1], the system named is LL29 cells (IPF patient-derived lung fibroblast cells). Description: MTT cell viability of lung fibroblast cells compared with alveolar epithelial cells. It counts as cell-based, human. As to conditions: for fibroblast cell-selective decrease in cell viability / cell death (LL29 versus A549): LL29 versus A549 cells, survived cell number. How it is done: (§1) A549 cells (human alveolar epithelial cells) and LL29 cells (IPF patient-derived lung fibroblast cells) were cultured under conditions of 37° C. and 5% CO2 by using, respectively, Dulbecco's modified Eagle's medium containing 10% FBS and Ham's F-12K (Kaighn's) medium containing 15% FBS.
The number of living cells was measured by an MTT method or trypan blue staining using Countess (trademark) Automated Cell Counter (Invitrogen, Carlsbad, CA). For evaluation of cell death, LDH activity in the medium was measured in accordance with the protocol of the assay kit.
For a specific method, IPF patient-derived lung fibroblast cells (LL29 cells) and human alveolar epithelial cells (A549 cells) were treated with existing approved drugs, and the cell viability 24 hours later was evaluated by an MTT method.
As with (b-1) above, IPF patient-derived lung fibroblast cells (LL29 cells) and human alveolar epithelial cells (A549 cells) were treated with existing approved drugs, and the cell viability 24 hours later was evaluated by an MTT method.

Assay [2] has as its system BLM pulmonary injury model mouse. Nature of the assay: BLM pulmonary injury model: H&E / Masson's trichrome staining, Ashcroft score, hydroxyproline. It counts as in vivo. The conditions noted are these: for BLM-dependent pulmonary injuries: once a day day 10 to day 18, BLM 1 mg/kg, pirfenidone 200 mg/kg, nintedanib 30 mg/kg, tolperisone 5 mg/kg.
The test system is the same in assay [3]. Nature of the assay: BLM pulmonary injury model: lung function (elastance, FVC) with ventilator for mice. The class given is in vivo. As for the experimental part: (§2) On day 1, BLM was administered via the airway to a normally reared male ICR mouse to prepare a BLM pulmonary injury model mouse.
The lung function was measured in accordance with previous literature by using a computer-controlled ventilator for small animals (FlexiVent; SCIREQ, Montreal, Canada). A metal tube (with an outer diameter of 1.27 mm and an inner diameter of 0.84 mm) was inserted by 8 mm into a mouse anesthetized with chloral hydrate (500 mg/kg), and the mouse was caused to breathe mechanically at a rate of 150 breaths/min with a tidal volume of 8.7 ml/kg and a positive end-expiratory pressure ventilation of 2-3 cm H2O.
The total respiratory elastance and the tissue elastance were measured by the snap shot and the forced oscillation technique, respectively. The forced vital capacity was measured in accordance with Chest 142, 1011-1019 (2012) by using the computer-controlled ventilator for small animals and a negative pressure reservoir (SCIREQ, Montreal, Canada). All the data was analyzed by using FlexiVent software (version 5.3; SCIREQ, Montreal, Canada).

For assay [4], the system named is LL29 cells. Description: TGF-β1-dependent activation of lung fibroblast cells: α-SMA and Col1a1 mRNA by real-time RT-PCR. It counts as cell-based, human. As for the experimental part:
Total RNA of cells was extracted by using RNeasy kit (Qiagen). 2.5 μg of total RNA was subjected to reverse transcription reaction in accordance with the protocol from Takara Bio Inc by using a first-strand cDNA synthesis kit (Takara Bio Inc). The synthesized cDNA was analyzed with a CFX96 (trademark) real time system by using SsoFast EvaGreen Supermix. For equalizing the total RNA amounts in the reactions, a glyceraldehyde-3-phosphate dehydrogenase (GAPDH) gene was used as an internal standard.
as §1
(§3) As described above, myofibroblast cells played an important role on pulmonary fibrosis in patients with IPF and bleomycin-induced pulmonary fibrosis. Thus, with attention focused on myofibroblast cells, the effects of idebenone and COQ10 were examined. […] Thus, the effects of idebenone and CoQ10 on TGF-β1-dependent activation of lung fibroblast cells (differentiation into myofibroblast cells) were compared. LL29 cells were treated with idebenone or CoQ10, and then treated with TGF-β1, and the amount of collagen in the medium was measured. […] Next, the effect of idebenone was examined by using the levels of α-SMA and mRNA of collagen as indices.

The subject of assay [5] is BLM pulmonary injury model mouse. Nature of the assay: BLM pulmonary injury model: α-SMA immunostaining of the lung (myofibroblast cells). It counts as in vivo. The conditions noted are these: FIGS. 7A and 7B. How it is done:
as §2
A method for immunostaining with α-SMA was carried out by blocking the section with 2.5% goat serum for 10 minutes, and then performing a primary antibody treatment (against α-SMA, 1:100 dilution). At 12 hours later, the section was incubated with Alexa Fluor 594 goat anti-rabbit immunoglobulin G and DAPI for 2 hours. Thereafter, the section was encapsulated by using VECTA SHIELD. The section was photographed by using a microscope (Olympus DP71).
An α-SMA-positive region was quantitatively determined by using Image J software (National Institutes of Health, Bethesda, MD) The number of 8-OHdG-positive cells was quantitatively determined by using Definiens Tissue Studio (trademark) software (CTC Life Science Corporation, Tokyo, Japan).

In assay [6] the test system is LL29 cells. Nature of the assay: TGF-β1-dependent activation of lung fibroblast cells: amount of collagen in the medium. It counts as cell-based, human. The conditions noted are these: LL29 cells treated with drug, then TGF-β1. As for the experimental part:
as §1, §3

Where [7] appears, read: oral, 15 or 50 mg/kg once a day day 10 to day 18.
Where [8] appears, read: airway administration, day 10 to day 19 (FIG. 10D).
The mark [9] stands for this setting: oral, once a day day 10 to day 18, pirfenidone 200 mg/kg, nintedanib 30 mg/kg, tolperisone 5 mg/kg.

`C[C@H](CN1CCCC1)C(=O)c1ccc(C(F)(F)F)cc1` [lanperisone]: the “fibroblast cell-selective decrease in cell viability / cell death (LL29 versus A549)” value in assay [1] is on record as “induced fibroblast cell-selective cell death”.
Still for that read-out and setting: with `CCc1ccc(C(=O)C(C)CN2CCCC2)cc1` (centres unmarked) [inaperisone] the entry was “induced fibroblast cell-selective cell death”.
For the molecule `Cc1ccc(=O)n(-c2ccccc2)c1` [pirfenidone], the “fibroblast cell-selective decrease in cell viability / cell death (LL29 versus A549)” value in assay [1] was “did not induce fibroblast cell-selective cell death; also recorded: hardly induced fibroblast cell-selective cell death”. In addition, the BLM-dependent pulmonary injuries result in assay [2] (oral, day 20) is reported as “hardly suppressed BLM-dependent pulmonary injuries”.
Consider `CCc1ccc(C(=O)C(C)CN2CCCCC2)cc1` (centres unmarked) [eperisone], for which the “fibroblast cell-selective decrease in cell viability / cell death (LL29 versus A549)” value in assay [1] is “decreased the cell viability of LL29 cells at a concentration lower than a concentration at which the cell viability of A549 cells decreased”. In addition, in assay [2] (intraperitoneal administration), the “BLM-dependent increase in amount of hydroxyproline” value is “tendency of suppression”; the “BLM-dependent pulmonary injuries and collagen accumulation” value is on record as “suppressed”. For the same molecule, in assay [2] (oral, 15 or 50 mg/kg once a day day 10 to day 18, BLM 1 mg/kg, day 20), the “BLM-dependent pulmonary injuries and collagen accumulation” value is “suppressed BLM-dependent pulmonary injuries and collagen accumulation in a concentration-dependent manner”. Also, in assay [3] (intraperitoneal administration), the “BLM-dependent decrease in FVC” value is “suppressed”; the “BLM-dependent increase in total respiratory system elastance and tissue elastance” value is given as “suppressed”. For the same molecule, in assay [3] (setting [7]), the “BLM-dependent decrease in FVC” value is “improved such changes in a concentration-dependent manner”; the “BLM-dependent increase in total respiratory system elastance and tissue elastance” value is given as “improved such changes in a concentration-dependent manner”. In addition, in the assay with LL29 cells [4], the “TGF-β1-induced expression of α-SMA and Col1a1 mRNA” value (from here on “TGF-β1-induced expression”) was “suppressed such induction”.
For `Cc1ccc(C(=O)C(C)CN2CCCCC2)cc1` (centres unmarked) [tolperisone], the “fibroblast cell-selective decrease in cell viability / cell death (LL29 versus A549)” value in assay [1] is “decreased the cell viability of LL29 cells (lung fibroblast cells) at a concentration lower than a concentration at which the cell viability of A549 cells (alveolar epithelial cells) decreased”. Besides, in assay [1] (screening of existing approved drugs, MTT, 24 hours, IC50 for LL29 lower than for A549), the “difference in IC50 (concentration required to decrease the cell viability by 50%) between LL29 and A549 cells” value is on record as “particularly marked difference in IC50 value”. For the same molecule, the “BLM-dependent increase in amount of hydroxyproline” value in assay [2] (airway administration, day 10 to day 19 (FIG. 10C)) is “hardly suppressed such an increase”; in assay [2] (intraperitoneal administration) it was “markedly suppressed such an increase”; in assay [2] (oral administration (FIG. 11C)), “markedly suppressed such an increase”. Further, the “BLM-dependent pulmonary injuries and collagen accumulation” value in assay [2] (airway administration, day 10 to day 19 (FIGS. 10A and 10B)) was “slightly suppressed such injuries and collagen accumulation”; in assay [2] (intraperitoneal administration), “suppressed such injuries and collagen accumulation”; in assay [2] (oral administration (FIGS. 11A and 11B)), “suppressed such injuries and collagen accumulation”. Besides, the BLM-dependent pulmonary injuries result in assay [2] (oral, day 20) was “markedly improved BLM pulmonary injuries”. Further, the “BLM-dependent decrease in FVC” value is listed as “suppressed such a decrease” in assay [3] (setting [8]), “suppressed such a decrease” in assay [3] (intraperitoneal administration), “suppressed such a decrease” in assay [3] (oral administration (FIG. 11D)) and “improved such changes” in assay [3] (setting [9]). In addition, the “BLM-dependent increase in total respiratory system elastance and tissue elastance” value was “tended to suppress such an increase” in assay [3] (setting [8]), “suppressed such an increase” in assay [3] (intraperitoneal administration), “suppressed such an increase” in assay [3] (oral administration (FIG. 11D)) and “improved such changes” in assay [3] (setting [9]). In addition, the “TGF-β1-induced expression” value with LL29 cells [4] is listed as “suppressed such induction”.
On to `Clc1ccc2nsnc2c1NC1=NCCN1` [tizanidine], for which, in assay [1], the “fibroblast cell-selective decrease in cell viability / cell death (LL29 versus A549)” value was “did not exhibit such an effect”.
`COC(=O)c1ccc2c(c1)NC(=O)/C2=C(\Nc1ccc(N(C)C(=O)CN2CCN(C)CC2)cc1)c1ccccc1` [nintedanib]: the “fibroblast cell-selective decrease in cell viability / cell death (LL29 versus A549)” value in assay [1] is given as “did not induce fibroblast cell-selective cell death; also recorded: hardly induced fibroblast cell-selective cell death”. Moreover, the BLM-dependent pulmonary injuries result in assay [2] (oral, day 20) is on record as “hardly suppressed BLM-dependent pulmonary injuries”.
As to `COC1=C(OC)C(=O)C(C/C=C(\C)CC/C=C(\C)CC/C=C(\C)CC/C=C(\C)CC/C=C(\C)CC/C=C(\C)CC/C=C(\C)CC/C=C(\C)CC/C=C(\C)CCC=C(C)C)=C(C)C1=O` [CoQ10], the “pulmonary injury and fibrosing by bleomycin” value in assay [2] (airway administration, comparison idebenone / CoQ10 (FIGS. 5A to 5C)) was “suppressed”. For the same molecule, the “bleomycin-induced increase in number of α-SMA-positive cells (myofibroblast cells) of the lung” value in assay [5] is recorded as “did not exhibit such a suppressing effect”. Moreover, the “TGF-β1-induced increase in amount of collagen in the medium” value with LL29 cells [6] was “did not suppress such an increase”. The “TGF-β1-induced expression” value with LL29 cells [4] is “did not suppress such induction”.
